Measured values: PMC8151276, “An Integrated Approach toward NanoBRET Tracers for Analysis of GPCR Ligand Engagement” (Molecules, 2021)

Legend:
NPBWR2 = target: T1, NPBWR2 (Homo sapiens, UniProt P48146); assay: NanoBRET screen HiBiT-NPBWR2 in HEK293; format: binding
T1 construct: purchased Promega (in-house HiBiT-GPCR construct library, NanoBRET)
Experimental: (§1) Each tracer candidate was screened across the entire library of HiBiT-GPCR constructs using NanoBRET as the detection modality. As depicted in Figure 4A, the specificity of interactions was evaluated through decrease in BRET due to competitive displacement of a bound tracer by excess parental compound. Each tracer was analyzed for binding to each HiBiT-GPCR fusion in the absence and in the presence of competing parental compound. Briefly, HEK293 cells were transfected with HiBiT-GPCR constructs diluted into promoterless DNA to reduce expression and maximize translocation to the cell surface. Each tracer candidate was then screened at concentrations of 1 μM and 0.1 μM across cells expressing these fusions. Cells were treated for 1.5 h with tracer either alone or in the presence of 20 μM competing parental compound (i.e., control). BRET was measured upon addition of purified LgBiT and subsequent complementation with HiBiT genetically fused to a GPCR. The specificity of interactions was assessed through a decrease in BRET signal due to competitive displacement of the bound tracer. To further gauge the robustness of these interactions, the fold response over the control (i.e., BRETtracer/BRETcontrol) was calculated. We chose a 1.5-fold response, which translates to ≥7-fold signal over noise as the minimal threshold required to score an interaction as positive. […]. Below we highlight the screening results obtained for our exemplary fluorescent tracers based on Clozapine, Amitriptyline and AZD1283.
(§2) HiBiT-GPCR DNA constructs were diluted in 10 mM Tris pH 8 to a final concentration of 0.01 μg/μL, arrayed in 96-well plates and stored at −20 °C. For transfection, HEK293 cells were suspended in Opti-MEM (without phenol red) supplemented with 2% fetal bovine serum (Seradigm) and 100 units/mL penicillin–streptomycin (Gibco) at a final concentration of 220,000 cells/mL and dispensed into white 96-well plates at 90 μL/well. Subsequent transfections and screens were carried using an Agilent Bravo Automated Liquid Handling Platform. First, the 96-well HiBiT DNA arrays were diluted 25-fold in Opti-MEM (without serum or phenol red) to a final concentration of 0.0004 μg/μL and 20 μL of the diluted DNAs were transferred into new 96-well plates. Next, promoterless carrier DNA (1 μg/μL) was diluted 25-fold (0.04 μg/μL) and then dispensed into the diluted arrays at 20 μL/well. Following brief mixing, Viafect transfection reagent (Promega) diluted 16-fold into Opti-MEM was dispensed into the plates at 40 μL/well. After mixing by pipetting, plates were incubated for 10 min on the pipetting station deck. The DNA-transfection reagent complexes were then added to plates containing cells. To facilitate the screen, 10 μL of DNA-transfection reagent complexes were added in duplicates to the top 4 and bottom 4 rows, resulting in two identical 48-well arrays per plate. Plates with transfected cells were incubated for 18–20 h at 37 °C/5% CO2. A screen of each tracer across the entire library using two different concentrations requires duplicate plates of transfected cells. Depending on the number of tracers being screened, transfections can be scaled up using the same ratios. The next day, for each tracer, four 20× screening solutions in tracer dilution buffer (Promega) were prepared: two duplicates at final concentration of 20 μM and two duplicates at a final concentration of 2 μM. A competing unmodified compound was added to one of each duplicate at a final concentration of 400 μM. The four resulting solutions were diluted 4-fold in Opti-MEM without serum or phenol red to generate 5× solutions (5 µM and 0.5 µM tracer +/− 100 μM competing compound). To screen the library, a BioTek MultiFlo FX liquid dispenser was used to dispense 22.5 µL of tracer solution to the top 4 rows and 22.5 µL tracer + competing compound solution to the 4 bottom rows. Plates were briefly mixed on an orbital shaker and incubated for 1.5 h at room temperature. […]

CCR5 = target: T2, CCR5 (Homo sapiens, UniProt P51681); assay: NanoBRET screen HiBiT-CCR5 in HEK293; format: binding
T2 construct: purchased Promega (in-house HiBiT-GPCR construct library, NanoBRET)
Experimental: as §1, §2

T1 sequence (P48146 whole entry): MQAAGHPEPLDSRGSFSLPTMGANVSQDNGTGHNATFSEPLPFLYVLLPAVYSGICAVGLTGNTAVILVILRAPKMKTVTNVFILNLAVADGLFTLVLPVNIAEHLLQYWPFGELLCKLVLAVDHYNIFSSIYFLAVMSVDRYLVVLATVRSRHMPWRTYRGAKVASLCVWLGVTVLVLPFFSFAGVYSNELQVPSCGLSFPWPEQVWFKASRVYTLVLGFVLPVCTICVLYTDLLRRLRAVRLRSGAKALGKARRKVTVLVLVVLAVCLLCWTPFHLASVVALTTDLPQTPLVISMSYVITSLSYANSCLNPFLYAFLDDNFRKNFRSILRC
T2 sequence (P51681 whole entry): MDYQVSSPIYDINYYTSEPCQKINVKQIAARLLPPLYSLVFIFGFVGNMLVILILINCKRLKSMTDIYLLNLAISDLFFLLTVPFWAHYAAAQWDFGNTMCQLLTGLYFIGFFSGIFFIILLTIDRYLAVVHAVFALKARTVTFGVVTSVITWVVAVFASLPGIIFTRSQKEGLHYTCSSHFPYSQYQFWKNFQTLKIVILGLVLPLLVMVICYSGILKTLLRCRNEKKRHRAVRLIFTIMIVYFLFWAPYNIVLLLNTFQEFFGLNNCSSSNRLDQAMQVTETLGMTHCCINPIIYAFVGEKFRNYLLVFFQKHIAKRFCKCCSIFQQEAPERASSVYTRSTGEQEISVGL

| SMILES | NanoBRET Fold Response (NPBWR2; NPBWR2, tracer 0.1μM) | NanoBRET Fold Response (NPBWR2; NPBWR2, tracer 1μM) | NanoBRET Fold Response (CCR5; CCR5, tracer 0.1μM) | NanoBRET Fold Response (CCR5; CCR5, tracer 1μM) | also measured |
| --- | --- | --- | --- | --- | --- |
| CCOC(=O)c1cc(C#N)c(N2CCC(C(=O)NS(=O)(=O)Cc3ccccc3/C=C/C(=O)NCCNC(=O)CCc3ccc4n3[B-](F)(F)[N+]3=C(c5ccc[nH]5)C=CC3=C4)CC2)nc1C [AZD1283-1-NB590] |  |  |  |  | NanoBRET Fold Response (NPBWR2; NPBWR2, 0.1μM): 0.95; NanoBRET Fold Response (NPBWR2; NPBWR2, 1μM): 0.99; NanoBRET Fold Response (CCR5; CCR5, 0.1μM): 1.02; NanoBRET Fold Response (CCR5; CCR5, 1μM): 1.04 |
| N#CN=C(NCCCOc1cccc(CN2CCCCC2)c1)NCCNC(=O)CCOCCOCCOCCOCCNC(=O)CCc1ccc2n1[B-](F)(F)[N+]1=C(c3ccc[nH]3)C=CC1=C2 [Aminopotentidine-2-NB590] | 1.04 | 0.92 | 1.00 | 1.11 |  |
| CN(C)CCC=C1c2ccccc2CCc2ccc(C(=O)NCCNC(=O)CCOCCOCCOCCOCCNC(=O)CCc3ccc4n3[B-](F)(F)[N+]3=C(c5ccc[nH]5)C=CC3=C4)cc21 [Amitriptyline-a-2-NB590] |  |  |  |  | NanoBRET Fold Response (CCR5; tracer at 0.1μM): 0.99; NanoBRET Fold Response (CCR5; tracer at 1μM): 1.01 |
| CN(C)CCC=C1c2ccccc2CCc2ccc(C(=O)NCCNC(=O)CCOCCOCCOCCOCCNC(=O)CCc3ccc4n3[B-](F)(F)[N+]3=C(c5ccc[nH]5)C=CC3=C4)cc21 [Amitriptyline-b-2-NB590] |  |  |  |  | NanoBRET Fold Response (NPBWR2; tracer at 0.1μM): 1.01; NanoBRET Fold Response (NPBWR2; tracer at 1μM): 0.95; NanoBRET Fold Response (CCR5; tracer at 0.1μM, listed as amitriptyline-b-2-NB590): 1.14; NanoBRET Fold Response (CCR5; tracer at 1μM, listed as amitriptyline-b-2-NB590): 1.07 |
| CN(CCC=C1c2ccccc2CCc2ccccc21)C(=O)CCOCCOCCOCCOCCNC(=O)CCc1ccc2n1[B-](F)(F)[N+]1=C(c3ccc[nH]3)C=CC1=C2 [Amitriptyline-e-2-NB590] |  |  |  |  | NanoBRET Fold Response (CCR5; tracer at 1μM): 0.97 |
| COc1ccc2c(n1)c(CCNC(C)=O)cn2CCNC(=O)CCc1ccc2n1[B-](F)(F)[N+]1=C(c3ccc[nH]3)C=CC1=C2 [Azamelatonin-1-NB590] |  |  |  |  | NanoBRET Fold Response (NPBWR2; 0.1μM tracer): 0.91; NanoBRET Fold Response (NPBWR2; 1μM tracer): 0.82; NanoBRET Fold Response (CCR5; 0.1μM tracer): 1.29; NanoBRET Fold Response (CCR5; 1μM tracer): 0.63 |
| COc1ccc2[nH]c(-c3ccc(CNC(=O)CCOCCOCCOCCOCCNC(=O)CCc4ccc5n4[B-](F)(F)[N+]4=C(c6ccc[nH]6)C=CC4=C5)cc3)c(CCNC(C)=O)c2n1 [AzomelatoninICO9-2-NB590] |  |  |  |  | NanoBRET Fold Response (NPBWR2; 0.1μM tracer): 1.08; NanoBRET Fold Response (NPBWR2; 1μM tracer): 0.90; NanoBRET Fold Response (CCR5; 0.1μM tracer): 1.31; NanoBRET Fold Response (CCR5; 1μM tracer): 0.98 |
| O=C(CCOCCOCCOCCOCCNC(=O)CCc1ccc2n1[B-](F)(F)[N+]1=C(c3ccc[nH]3)C=CC1=C2)NCCCN1CCN(C2=Nc3cc(Cl)ccc3Nc3ccccc32)CC1 [Clozapine-a-2-NB590] |  |  |  |  | NanoBRET Fold Response (NPBWR2; NPBWR2, 0.1μM tracer): 1.04; NanoBRET Fold Response (NPBWR2; NPBWR2, 1μM tracer): 0.89; NanoBRET Fold Response (CCR5; CCR5, 0.1μM tracer): 1.07; NanoBRET Fold Response (CCR5; CCR5, 1μM tracer): 0.90 |
| CN1CCN(C2=Nc3cc(Cl)ccc3Nc3ccc(CNC(=O)CCOCCOCCOCCOCCNC(=O)CCc4ccc5n4[B-](F)(F)[N+]4=C(c6ccc[nH]6)C=CC4=C5)cc32)CC1 [Clozapine-b-2-NB590] |  |  |  |  | NanoBRET Fold Response (NPBWR2; NPBWR2, 0.1μM tracer): 0.99; NanoBRET Fold Response (NPBWR2; NPBWR2, 1μM tracer): 1.08; NanoBRET Fold Response (CCR5; CCR5, 0.1μM tracer): 1.05; NanoBRET Fold Response (CCR5; CCR5, 1μM tracer): 0.92 |
| CN1CCN(C2=Nc3cc(Cl)ccc3N(CC(=O)NCCOCCOCCOCCOCCNC(=O)CCc3ccc4n3[B-](F)(F)[N+]3=C(c5ccc[nH]5)C=CC3=C4)c3ccccc32)CC1 [Clozapine-c-2-NB590] |  |  |  |  | NanoBRET Fold Response (NPBWR2; NPBWR2, 0.1μM tracer): 0.97; NanoBRET Fold Response (NPBWR2; NPBWR2, 1μM tracer): 0.98; NanoBRET Fold Response (CCR5; CCR5, 0.1μM tracer): 0.98; NanoBRET Fold Response (CCR5; CCR5, 1μM tracer): 0.95 |
| O=C(CCOCCOCCOCCOCCNC(=O)CCc1ccc2n1[B-](F)(F)[N+]1=C(c3ccc[nH]3)C=CC1=C2)NCCCN1CCN(C2=Nc3ccccc3Oc3ccc(Cl)cc32)CC1 [Loxapine-a-2-NB590] | 1.07 | 0.93 | 1.00 | 1.34 |  |
| COc1ccccc1N1CCN(CCCCN2C(=O)c3ccc(CNC(=O)CCOCCOCCOCCOCCNC(=O)CCc4ccc5n4[B-](F)(F)[N+]4=C(c6ccc[nH]6)C=CC4=C5)cc3C2=O)CC1 [NAN-190-2-NB590] | 1.00 |  | 0.95 | 1.03 |  |
| COc1ccccc1N1CCN(CCCCN2C(=O)c3ccc(CNC(=O)CCOCCNC(=O)c4ccc(CNC(=O)CCc5ccc6n5[B-](F)(F)[N+]5=C(c7ccc[nH]7)C=CC5=C6)cc4)cc3C2=O)CC1 [NAN-190-3-NB590] | 0.96 | 0.79 | 0.95 | 1.03 |  |
| O=C(CCc1ccc2n1[B-](F)(F)[N+]1=C(c3ccc[nH]3)C=CC1=C2)NCc1ccc(C(=O)NCCOCCC(=O)N[C@@H]2CC[C@@]3(O)[C@H]4Cc5ccc(O)c6c5[C@@]3(CCN4CC3CC3)[C@H]2O6)cc1 [Naltrexone-3-NB590] | 1.05 | 1.04 | 1.21 | 1.11 |  |
| Cc1cc2c(s1)Nc1ccccc1N=C2N1CCN(CCCNC(=O)CCOCCOCCOCCOCCNC(=O)CCc2ccc3n2[B-](F)(F)[N+]2=C(c4ccc[nH]4)C=CC2=C3)CC1 [Olanzapine-a-2-NB590] | 0.98 | 1.02 | 1.00 | 0.89 |  |
| O=C(CCc1ccc2n1[B-](F)(F)[N+]1=C(c3ccc[nH]3)C=CC1=C2)NCc1ccc(C(=O)NCCOCCOCCNCC(O)COc2cccc3ccccc23)cc1 (stereo not drawn) [Propranolol-3-NB590] |  |  |  |  | NanoBRET Fold Response (NPBWR2; NPBWR2, 0.1μM): 1.05; NanoBRET Fold Response (NPBWR2; NPBWR2, 1μM): 1.05; NanoBRET Fold Response (CCR5; CCR5, 0.1μM): 1.09; NanoBRET Fold Response (CCR5; CCR5, 1μM): 0.96 |
| O=C(CCc1ccc2n1[B-](F)(F)[N+]1=C(c3ccc[nH]3)C=CC1=C2)NCCOCCOCCNC(=O)OCCOCCN1CCN(C2=Nc3ccccc3Sc3ccccc32)CC1 [Quetiapine-a-2-NB590] | 0.97 | 1.09 | 0.95 | 0.85 |  |
| Cc1nc2n(c(=O)c1CCN1CCC(c3noc4cc(F)ccc34)CC1)CCCC2OC(=O)NCCOCCOCCOCCOCCNC(=O)CCc1ccc2n1[B-](F)(F)[N+]1=C(c3ccc[nH]3)C=CC1=C2 (stereo not drawn) [Risperidone-2-NB590] | 1.05 | 1.00 | 0.96 | 0.90 |  |
| CC(C)N(CC[C@H](c1ccccc1)c1cc(CCNC(=O)CCOCCOCCOCCOCCNC(=O)CCc2ccc3n2[B-](F)(F)[N+]2=C(c4ccc[nH]4)C=CC2=C3)ccc1O)C(C)C [Tolterodine-2-NB590] | 1.41 | 0.83 | 1.03 | 1.01 |  |
| CC(C)N(CC[C@H](c1ccccc1)c1cc(CCNC(=O)c2ccc(CNC(=O)CCc3ccc4n3[B-](F)(F)[N+]3=C(c5ccc[nH]5)C=CC3=C4)cc2)ccc1O)C(C)C [Tolterodine-BZ-NB590] | 0.96 | 1.06 | 1.09 | 0.97 |  |
| CCCn1c(=O)c2[nH]c(-c3ccc(OCC(=O)NCCNC(=O)CCOCCNC(=O)c4ccc(CNC(=O)CCc5ccc6n5[B-](F)(F)[N+]5=C(c7ccc[nH]7)C=CC5=C6)cc4)cc3)nc2n(CCC)c1=O [XAC-3-NB590] | 1.01 | 0.99 | 0.83 | 0.86 |  |
